Laboratory results taken from ChEMBL document CHEMBL4507282, “Data for DCP probe BI-1950” (2021).

Key:
[1] = biological target: Serine/threonine-protein kinase SIK3 (Homo sapiens) (UniProt Q9Y2K2); settings: Compound concentration 1000.0 nM
[2] = biological target: Bone morphogenetic protein receptor type-1A (Homo sapiens) (UniProt P36894); settings: Compound concentration 1000.0 nM
[3] = biological target: STE20-like serine/threonine-protein kinase (Homo sapiens) (UniProt Q9H2G2); settings: Compound concentration 1000.0 nM
[4] = biological target: Interferon-induced, double-stranded RNA-activated protein kinase (Homo sapiens) (UniProt P19525); settings: Compound concentration 1000.0 nM
[5] = biological target: Cyclin-G-associated kinase (Homo sapiens) (UniProt O14976); settings: Compound concentration 1000.0 nM
[6] = biological target: Serine/threonine-protein kinase 17B (Homo sapiens) (UniProt O94768); settings: Compound concentration 1000.0 nM
[7] = system: Tyrosine-protein kinase ABL1 (Homo sapiens), P00519 [F317L]; settings: Compound concentration 1000.0 nM
[8] = system: Receptor-type tyrosine-protein kinase FLT3 (Homo sapiens), P36888 [UNDEFINED MUTATION]; settings: Compound concentration 1000.0 nM
[9] = biological target: Dual specificity mitogen-activated protein kinase kinase 6 (Homo sapiens) (UniProt P52564); settings: Compound concentration 1000.0 nM
[10] = biological target: Serine/threonine-protein kinase 33 (Homo sapiens) (UniProt Q9BYT3); settings: Compound concentration 1000.0 nM
[11] = biological target: Inhibitor of nuclear factor kappa-B kinase subunit alpha (Homo sapiens) (UniProt O15111); settings: Compound concentration 1000.0 nM
[12] = biological target: Cyclin-dependent kinase 19 (Homo sapiens) (UniProt Q9BWU1); settings: Compound concentration 1000.0 nM
[13] = biological target: Receptor-type tyrosine-protein kinase FLT3 (Homo sapiens) (UniProt P36888); settings: Compound concentration 1000.0 nM
[14] = biological target: Serine/threonine-protein kinase 24 (Homo sapiens) (UniProt Q9Y6E0); settings: Compound concentration 1000.0 nM
[15] = biological target: Receptor-interacting serine/threonine-protein kinase 1 (Homo sapiens) (UniProt Q13546); settings: Compound concentration 1000.0 nM
[16] = biological target: Dual specificity mitogen-activated protein kinase kinase 4 (Homo sapiens) (UniProt P45985); settings: Compound concentration 1000.0 nM
[17] = biological target: 5-hydroxytryptamine receptor 1E (Homo sapiens) (UniProt P28566); settings: Compound concentration 10.0 uM
[18] = biological target: D(2) dopamine receptor (Homo sapiens) (UniProt P14416); settings: Compound concentration 10.0 uM
[19] = biological target: Mitogen-activated protein kinase kinase kinase 12 (Homo sapiens) (UniProt Q12852); settings: Compound concentration 1000.0 nM
[20] = biological target: Serine/threonine-protein kinase D3 (Homo sapiens) (UniProt O94806); settings: Compound concentration 1000.0 nM
[21] = biological target: Tyrosine-protein kinase CSK (Homo sapiens) (UniProt P41240); settings: Compound concentration 1000.0 nM
[22] = biological target: Mast/stem cell growth factor receptor Kit (Homo sapiens) (UniProt P10721); settings: Compound concentration 1000.0 nM
[23] = system: Tyrosine-protein kinase ABL1 (Homo sapiens), P00519 [Q252H]; settings: Compound concentration 1000.0 nM
[24] = biological target: Serine/threonine-protein kinase MRCK beta (Homo sapiens) (UniProt Q9Y5S2); settings: Compound concentration 1000.0 nM
[25] = biological target: Serine/threonine-protein kinase ICK (Homo sapiens) (UniProt Q9UPZ9); settings: Compound concentration 1000.0 nM
[26] = biological target: Serine/threonine-protein kinase RIO3 (Homo sapiens) (UniProt O14730); settings: Compound concentration 1000.0 nM
[27] = biological target: Serine/threonine-protein kinase MRCK alpha (Homo sapiens) (UniProt Q5VT25); settings: Compound concentration 1000.0 nM
[28] = biological target: MAP kinase-interacting serine/threonine-protein kinase 2 (Homo sapiens) (UniProt Q9HBH9); settings: Compound concentration 1000.0 nM
[29] = biological target: Serine/threonine-protein kinase Sgk3 (Homo sapiens) (UniProt Q96BR1); settings: Compound concentration 1000.0 nM
[30] = system: Receptor-type tyrosine-protein kinase FLT3 (Homo sapiens), P36888 [UNDEFINED MUTATION]; settings: Compound concentration 1000.0 nM; remark: listed apart in the source
[31] = biological target: Receptor-interacting serine/threonine-protein kinase 4 (Homo sapiens) (UniProt P57078); settings: Compound concentration 1000.0 nM
[32] = biological target: Mitogen-activated protein kinase kinase kinase 13 (Homo sapiens) (UniProt O43283); settings: Compound concentration 1000.0 nM
[33] = biological target: Dual specificity mitogen-activated protein kinase kinase 2 (Homo sapiens) (UniProt P36507); settings: Compound concentration 1000.0 nM
[34] = biological target: Activin receptor type-1B (Homo sapiens) (UniProt P36896); settings: Compound concentration 1000.0 nM
[35] = biological target: Casein kinase II subunit alpha' (Homo sapiens) (UniProt P19784); settings: Compound concentration 1000.0 nM
[36] = biological target: Serine/threonine-protein kinase NLK (Homo sapiens) (UniProt Q9UBE8); settings: Compound concentration 1000.0 nM
[37] = biological target: Wee1-like protein kinase 2 (Homo sapiens) (UniProt P0C1S8); settings: Compound concentration 1000.0 nM
[38] = biological target: NUAK family SNF1-like kinase 2 (Homo sapiens) (UniProt Q9H093); settings: Compound concentration 1000.0 nM
[39] = biological target: TGF-beta receptor type-1 (Homo sapiens) (UniProt P36897); settings: Compound concentration 1000.0 nM
[40] = biological target: Receptor-type tyrosine-protein kinase FLT3 (Homo sapiens) (UniProt P36888); settings: Compound concentration 1000.0 nM; remark: listed apart in the source
[41] = biological target: Dual specificity mitogen-activated protein kinase kinase 1 (Homo sapiens) (UniProt Q02750); settings: Compound concentration 1000.0 nM
[42] = biological target: D(1A) dopamine receptor (Homo sapiens) (UniProt P21728); settings: Compound concentration 10.0 uM
[43] = biological target: Mitogen-activated protein kinase 8 (Homo sapiens) (UniProt P45983); settings: Compound concentration 1000.0 nM
[44] = biological target: Mitogen-activated protein kinase kinase kinase 10 (Homo sapiens) (UniProt Q02779); settings: Compound concentration 1000.0 nM

Receptor-type tyrosine-protein kinase FLT3 (Homo sapiens), sequence (P36888 whole entry): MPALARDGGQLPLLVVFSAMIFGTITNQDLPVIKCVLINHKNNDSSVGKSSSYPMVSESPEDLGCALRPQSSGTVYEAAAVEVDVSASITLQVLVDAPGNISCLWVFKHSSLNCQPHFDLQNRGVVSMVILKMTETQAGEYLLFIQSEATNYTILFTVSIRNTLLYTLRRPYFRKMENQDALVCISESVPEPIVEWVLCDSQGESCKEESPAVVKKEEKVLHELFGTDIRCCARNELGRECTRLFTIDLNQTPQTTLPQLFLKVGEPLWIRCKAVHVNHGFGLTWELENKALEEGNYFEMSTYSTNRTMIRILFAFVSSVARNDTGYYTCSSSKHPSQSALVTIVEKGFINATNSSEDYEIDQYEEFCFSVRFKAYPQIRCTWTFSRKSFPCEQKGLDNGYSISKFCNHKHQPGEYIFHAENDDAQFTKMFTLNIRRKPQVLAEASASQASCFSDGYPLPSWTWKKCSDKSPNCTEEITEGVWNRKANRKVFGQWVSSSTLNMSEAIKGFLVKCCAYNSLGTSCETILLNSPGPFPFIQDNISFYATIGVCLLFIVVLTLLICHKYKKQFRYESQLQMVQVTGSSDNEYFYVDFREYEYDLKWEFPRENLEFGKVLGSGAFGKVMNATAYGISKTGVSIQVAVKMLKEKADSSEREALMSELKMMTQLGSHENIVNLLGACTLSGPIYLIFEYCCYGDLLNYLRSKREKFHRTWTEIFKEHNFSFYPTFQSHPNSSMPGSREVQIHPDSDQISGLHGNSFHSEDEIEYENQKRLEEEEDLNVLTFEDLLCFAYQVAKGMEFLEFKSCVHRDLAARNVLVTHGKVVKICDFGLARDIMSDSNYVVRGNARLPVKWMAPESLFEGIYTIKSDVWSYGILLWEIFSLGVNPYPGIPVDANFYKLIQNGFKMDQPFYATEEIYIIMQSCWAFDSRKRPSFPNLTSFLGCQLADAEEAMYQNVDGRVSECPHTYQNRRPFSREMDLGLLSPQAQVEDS
Receptor-type tyrosine-protein kinase FLT3 (Homo sapiens), P36888 [UNDEFINED MUTATION], sequence (P36888 whole entry, looked up, change not shown): as the sequence (P36888 whole entry) above
Mitogen-activated protein kinase kinase kinase 12 (Homo sapiens), sequence (Q12852 whole entry): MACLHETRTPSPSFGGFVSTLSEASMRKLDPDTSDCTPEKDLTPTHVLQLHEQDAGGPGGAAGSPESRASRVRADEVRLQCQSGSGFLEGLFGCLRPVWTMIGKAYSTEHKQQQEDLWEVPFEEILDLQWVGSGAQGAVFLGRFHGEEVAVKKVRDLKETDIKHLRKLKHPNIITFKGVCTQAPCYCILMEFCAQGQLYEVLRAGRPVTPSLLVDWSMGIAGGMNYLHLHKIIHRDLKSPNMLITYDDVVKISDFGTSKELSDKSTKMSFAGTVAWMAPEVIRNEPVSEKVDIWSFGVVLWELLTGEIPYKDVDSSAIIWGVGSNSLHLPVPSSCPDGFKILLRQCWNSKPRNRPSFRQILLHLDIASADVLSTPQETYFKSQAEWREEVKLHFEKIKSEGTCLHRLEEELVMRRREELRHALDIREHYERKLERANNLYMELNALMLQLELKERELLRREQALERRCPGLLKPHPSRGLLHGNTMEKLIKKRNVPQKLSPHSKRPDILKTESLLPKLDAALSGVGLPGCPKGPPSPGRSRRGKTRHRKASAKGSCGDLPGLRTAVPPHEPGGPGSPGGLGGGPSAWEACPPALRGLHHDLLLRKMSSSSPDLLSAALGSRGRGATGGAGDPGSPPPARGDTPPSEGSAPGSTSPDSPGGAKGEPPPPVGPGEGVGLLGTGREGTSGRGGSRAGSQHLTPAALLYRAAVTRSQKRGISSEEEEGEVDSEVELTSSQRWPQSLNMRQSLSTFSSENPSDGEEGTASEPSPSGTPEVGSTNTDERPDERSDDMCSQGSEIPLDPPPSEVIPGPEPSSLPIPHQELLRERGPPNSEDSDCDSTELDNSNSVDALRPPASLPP
Wee1-like protein kinase 2 (Homo sapiens), sequence (P0C1S8 whole entry, looked up): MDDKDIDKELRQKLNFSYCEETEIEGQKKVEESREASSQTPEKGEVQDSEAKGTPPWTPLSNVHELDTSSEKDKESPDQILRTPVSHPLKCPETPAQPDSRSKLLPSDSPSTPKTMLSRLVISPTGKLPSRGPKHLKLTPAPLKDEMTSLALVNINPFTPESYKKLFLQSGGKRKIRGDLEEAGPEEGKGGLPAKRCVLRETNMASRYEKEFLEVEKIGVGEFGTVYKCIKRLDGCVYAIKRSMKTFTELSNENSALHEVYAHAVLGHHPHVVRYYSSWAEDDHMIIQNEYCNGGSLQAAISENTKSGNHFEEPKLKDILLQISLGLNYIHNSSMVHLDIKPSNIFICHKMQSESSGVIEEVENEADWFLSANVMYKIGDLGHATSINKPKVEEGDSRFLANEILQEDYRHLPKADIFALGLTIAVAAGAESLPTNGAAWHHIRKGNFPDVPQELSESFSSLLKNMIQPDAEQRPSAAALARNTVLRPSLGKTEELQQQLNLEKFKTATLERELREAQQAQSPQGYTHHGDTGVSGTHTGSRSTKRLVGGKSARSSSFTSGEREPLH
Casein kinase II subunit alpha' (Homo sapiens), sequence (P19784 whole entry, looked up): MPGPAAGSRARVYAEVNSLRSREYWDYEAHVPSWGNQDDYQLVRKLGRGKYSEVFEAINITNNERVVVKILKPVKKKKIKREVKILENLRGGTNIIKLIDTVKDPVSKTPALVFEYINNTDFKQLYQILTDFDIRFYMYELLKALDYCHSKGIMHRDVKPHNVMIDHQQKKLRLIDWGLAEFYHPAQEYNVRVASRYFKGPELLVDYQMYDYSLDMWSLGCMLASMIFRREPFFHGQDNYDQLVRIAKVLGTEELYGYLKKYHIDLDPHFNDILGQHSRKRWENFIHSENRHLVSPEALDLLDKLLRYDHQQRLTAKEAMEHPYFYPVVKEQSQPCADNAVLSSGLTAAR
Mitogen-activated protein kinase 8 (Homo sapiens), sequence (P45983 whole entry): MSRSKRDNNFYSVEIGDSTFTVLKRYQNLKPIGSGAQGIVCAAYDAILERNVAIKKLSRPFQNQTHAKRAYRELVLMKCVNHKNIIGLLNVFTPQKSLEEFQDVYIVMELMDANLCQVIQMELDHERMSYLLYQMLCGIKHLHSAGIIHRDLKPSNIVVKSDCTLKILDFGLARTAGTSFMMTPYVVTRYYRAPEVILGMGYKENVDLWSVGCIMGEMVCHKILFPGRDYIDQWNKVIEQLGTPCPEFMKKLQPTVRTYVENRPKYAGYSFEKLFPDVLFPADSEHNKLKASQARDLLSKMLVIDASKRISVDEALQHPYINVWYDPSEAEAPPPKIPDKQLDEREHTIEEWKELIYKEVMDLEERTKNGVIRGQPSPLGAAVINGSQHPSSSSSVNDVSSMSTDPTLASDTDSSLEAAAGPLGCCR
D(1A) dopamine receptor (Homo sapiens), sequence (P21728 whole entry): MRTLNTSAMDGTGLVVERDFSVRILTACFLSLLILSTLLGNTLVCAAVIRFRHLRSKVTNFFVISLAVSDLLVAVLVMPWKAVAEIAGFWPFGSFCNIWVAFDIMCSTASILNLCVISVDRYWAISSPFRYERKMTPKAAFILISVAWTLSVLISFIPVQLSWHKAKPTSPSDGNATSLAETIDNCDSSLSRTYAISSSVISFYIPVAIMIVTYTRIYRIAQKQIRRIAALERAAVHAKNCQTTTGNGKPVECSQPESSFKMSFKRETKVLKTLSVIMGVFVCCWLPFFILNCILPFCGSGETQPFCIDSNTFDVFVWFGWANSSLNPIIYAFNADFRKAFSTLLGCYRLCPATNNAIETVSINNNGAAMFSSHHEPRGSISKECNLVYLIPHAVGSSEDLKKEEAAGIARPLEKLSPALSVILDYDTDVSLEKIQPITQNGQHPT
Serine/threonine-protein kinase NLK (Homo sapiens), sequence (Q9UBE8 whole entry): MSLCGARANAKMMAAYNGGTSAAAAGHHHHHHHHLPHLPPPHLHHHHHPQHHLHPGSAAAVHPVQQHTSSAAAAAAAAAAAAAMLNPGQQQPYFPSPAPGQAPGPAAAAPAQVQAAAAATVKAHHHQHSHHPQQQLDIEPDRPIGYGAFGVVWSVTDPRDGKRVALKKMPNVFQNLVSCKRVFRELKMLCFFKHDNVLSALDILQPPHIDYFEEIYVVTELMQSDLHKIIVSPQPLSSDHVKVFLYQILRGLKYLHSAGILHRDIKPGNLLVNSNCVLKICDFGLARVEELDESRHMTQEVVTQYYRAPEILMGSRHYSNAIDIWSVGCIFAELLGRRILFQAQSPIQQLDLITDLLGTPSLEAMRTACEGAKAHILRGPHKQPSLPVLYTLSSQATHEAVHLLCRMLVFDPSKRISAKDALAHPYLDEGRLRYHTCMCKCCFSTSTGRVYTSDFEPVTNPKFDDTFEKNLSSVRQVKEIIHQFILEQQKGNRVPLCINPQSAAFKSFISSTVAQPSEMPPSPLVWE
NUAK family SNF1-like kinase 2 (Homo sapiens), sequence (Q9H093 whole entry): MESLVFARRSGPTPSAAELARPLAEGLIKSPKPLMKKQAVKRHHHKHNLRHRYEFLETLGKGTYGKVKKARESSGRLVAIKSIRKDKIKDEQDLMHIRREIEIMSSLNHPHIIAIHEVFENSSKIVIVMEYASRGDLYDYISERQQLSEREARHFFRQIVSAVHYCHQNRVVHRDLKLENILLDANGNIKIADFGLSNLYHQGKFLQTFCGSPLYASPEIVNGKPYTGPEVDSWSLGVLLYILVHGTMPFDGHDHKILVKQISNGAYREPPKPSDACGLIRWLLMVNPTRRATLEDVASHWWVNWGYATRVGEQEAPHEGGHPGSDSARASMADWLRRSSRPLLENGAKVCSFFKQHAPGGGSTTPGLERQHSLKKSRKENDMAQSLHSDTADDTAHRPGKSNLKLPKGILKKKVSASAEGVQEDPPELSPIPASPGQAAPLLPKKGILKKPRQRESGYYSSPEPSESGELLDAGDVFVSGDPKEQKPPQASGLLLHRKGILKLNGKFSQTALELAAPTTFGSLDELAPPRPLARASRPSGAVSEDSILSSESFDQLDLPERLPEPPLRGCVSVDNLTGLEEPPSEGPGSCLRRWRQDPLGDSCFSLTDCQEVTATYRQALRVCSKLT

C[C@H](NC(=O)c1cnc2n1[C@](C)(Cc1ccc(C#N)cc1)C(=O)N2c1cc(Cl)c(F)c(Cl)c1)C(=O)NC1(c2ccccn2)CC1 [BI 1950]
inactive: residual activity [1] 76% | residual activity [2] 98% | residual activity [3] 100% | residual activity [5] 92% | residual activity [6] 100% | residual activity [7] 100% | residual activity [8] 100% | residual activity [9] 80% | residual activity [10] 88% | residual activity [11] 100% | residual activity [12] 81% | residual activity [13] 100% | residual activity [14] 100% | residual activity [15] 100% | residual activity [16] 100% | inhibition [17] 17.7% | inhibition [18] 7.62% | residual activity [19] 100% | residual activity [20] 100% | residual activity [21] 100% | residual activity [22] 100% | residual activity [23] 100% | residual activity [24] 100% | residual activity [25] 100% | residual activity [26] 100% | residual activity [27] 100% | residual activity [28] 100% | residual activity [29] 100% | residual activity [30] 100% | residual activity [31] 100% | residual activity [32] 100% | residual activity [33] 90% | residual activity [34] 99% | residual activity [35] 99% | residual activity [36] 100% | residual activity [37] 100% | residual activity [38] 100% | residual activity [39] 82% | residual activity [40] 100% | residual activity [41] 92% | inhibition [42] 1.26% | residual activity [43] 81% | residual activity [44] 100%
active: residual activity [4] 34%

C[C@@]1(Cc2ccc(C#N)cc2)C(=O)N(c2cc(Cl)cc(Cl)c2)c2ncc(C(=O)NC3(c4nc(C5CCC5)no4)CC3)n21 [BI 9446]
inactive: residual activity [1] 98% | residual activity [2] 100% | residual activity [3] 100% | residual activity [4] 56% | residual activity [5] 100% | residual activity [6] 100% | residual activity [7] 86% | residual activity [8] 100% | residual activity [9] 80% | residual activity [10] 100% | residual activity [11] 100% | residual activity [12] 76% | residual activity [13] 100% | residual activity [14] 93% | residual activity [15] 100% | residual activity [16] 100% | inhibition [17] 31.5% | inhibition [18] 16.4% | residual activity [19] 100% | residual activity [20] 87% | residual activity [21] 98% | residual activity [22] 100% | residual activity [23] 100% | residual activity [24] 100% | residual activity [25] 100% | residual activity [26] 100% | residual activity [27] 100% | residual activity [28] 100% | residual activity [29] 100% | residual activity [30] 100% | residual activity [31] 100% | residual activity [32] 100% | residual activity [33] 99% | residual activity [34] 100% | residual activity [35] 100% | residual activity [36] 100% | residual activity [37] 100% | residual activity [38] 100% | residual activity [39] 100% | residual activity [40] 98% | residual activity [41] 97% | inhibition [42] 18.6% | residual activity [43] 100% | residual activity [44] 100%
